Experiments:
Format in all cases: cell-based
Conditions in all cases: Homo sapiens, compound 5 hours at 37° C., 1% DMSO, percent vehicle fit to 4 parameter curve
[1] = test system: Aβ-38; experiment: Aβ-38 level in conditioned media of 2B7 cells (MSD 3-PLEX ELISA)
Experimental: (§1) Assays were conducted to determine the ability of a Compound of Formula I to modulate […], and Aβ-38.
(§2) Plates with capture antibodies were blocked for 1-2 hours at room temperature with 150 μL of the manufactures blocking reagent.
(§3) Cultured 2B7 cells in 96 well plate with 250 uL of media per well until confluent;
(§4) Prepared serial dilutions of compounds in DMSO at 100× the final desired concentration;
(§5) Washed wells with 2B7 cells 1× with 250 uL of media;
(§6) Diluted DMSO stocks 1:100 into media:
(§7) Added 250 μL of media containing compounds (1% DMSO) to wells with 2B7 cells for 5 hours at 37° C.
(§8) Diluted conditioned media: 1 part media with 1% DMSO and 1 part blocking buffer;
(§9) 150 μL of the 250 μL of conditioned media were used.
(§10) Standard Curve Sample Prep:
(§11) Prepared per manufacturer's protocol (see above)
(§12) Seven point standard curve samples were prepared that contained Aβ-42, Aβ-40, and Aβ-38. The highest concentration of Aβ-42 and Aβ-38 was 3,000 pg/mL and the highest concentration of Aβ-40 was 10,000 pg/mL. Subsequent serial dilutions were 1:3 and the final composition of each sample was 1 part blocking buffer and 1 part cell medium containing 1% DMSO.
(§13) Overnight Sample Incubation:
(§14) Blocked plates are washed 5× with MSD wash buffer with a plate washer
(§15) 25 uL of detection antibody and blocker G reagent in MSD blocking solution is added
(§16) 25 uL of samples (1 part conditioned media containing 1% DMSO and 1 part MSD blocking buffer) are then added.
(§17) plates are incubated overnight at 4 degrees C. or 2 hours at room temp
(§18) Wash wells 5× with MSD wash buffer
(§19) Added 150 μL 2×MSD read buffer
(§20) A-Beta peptide levels for each peptide are calculated from the standard curve using the MSD software provided with the MSD 2400 Imager. Percent vehicle values for each compound dosage were then calculated and fit to a 4 parameter curve generating IC50 values.

[2] = test system: Aβ-40; experiment: Aβ-40 level in conditioned media of 2B7 cells (MSD 3-PLEX ELISA)
Experimental: as §1
Human (6E10) Ab 3-PLEX elisa kits were purchased from Meso Scale Discovery Labs, 9328 Gaither Road, Gaithersburg, Md. 20877 (Catalog Number K15148E-3). Plates with capture antibodies were blocked for 1-2 hours at room temperature with 150 μL of the manufactures blocking reagent.
as §3, §4, §5, §6, §7, §8, §9, §10, §11, §12, §13, §14, §15, §16, §17, §18, §19, §20

[3] = test system: Aβ-42; experiment: Aβ-42 level in conditioned media of 2B7 cells (MSD 3-PLEX ELISA)
Experimental: as §1, §2, §3, §4, §5, §6, §7, §8, §9, §10, §11, §12, §13, §14, §15, §16, §17, §18, §19, §20

CCO[C@@H]([C@H]1C[C@@H](C)[C@H]2[C@H](O1)[C@H](O)[C@@]1(C)[C@@H]3CC[C@H]4C(C)(C)[C@@H](OC(=O)C5CCN5)CCC45C[C@@]35CC[C@]21C)C(C)(C)O (stereo partly drawn)
IC50 [1]: < 1 µM
IC50 [2]: 1 to 10 µM
IC50 [3]: < 1 µM

CCO[C@@H]([C@H]1C[C@@H](C)[C@H]2[C@H](O1)[C@H](O)[C@@]1(C)[C@@H]3CC[C@H]4C(C)(C)[C@@H](O[C@H]5CN(C6CN(C(C)C)C6)CCO5)CCC45C[C@@]35CC[C@]21C)C(C)(C)OC (stereo partly drawn)
IC50 [1]: < 1 µM
IC50 [2]: 1 to 10 µM
IC50 [3]: < 1 µM

CCO[C@@H]([C@H]1C[C@@H](C)[C@H]2[C@H](O1)[C@H](O)[C@@]1(C)[C@@H]3CC[C@H]4C(C)(C)[C@@H](OC(=O)[C@@H]5COCCN5C(C)C)CCC45C[C@@]35CC[C@]21C)C(C)(C)O (stereo partly drawn)
IC50 [1]: 1 to 10 µM
IC50 [2]: > 10 µM
IC50 [3]: < 1 µM

CCO[C@@H]([C@H]1C[C@@H](C)[C@H]2[C@H](O1)[C@H](O)[C@@]1(C)[C@@H]3CC[C@H]4C(C)(C)[C@@H](OC(=O)[C@H]5CCCN5C)CCC45C[C@@]35CC[C@]21C)C(C)(C)O (stereo partly drawn)
IC50 [1]: < 1 µM
IC50 [2]: 1 to 10 µM
IC50 [3]: < 1 µM

CCO[C@@H]([C@H]1C[C@@H](C)[C@H]2[C@H](O1)[C@H](O)[C@@]1(C)[C@@H]3CC[C@H]4C(C)(C)[C@@H](O[C@H]5CN(CC(=O)N(C)C)CCO5)CCC45C[C@@]35CC[C@]21C)C(C)(C)O (stereo partly drawn)
IC50 [1]: < 1 µM
IC50 [2]: 1 to 10 µM
IC50 [3]: < 1 µM

CCO[C@@H]([C@H]1C[C@@H](C)[C@H]2[C@H](O1)[C@H](O)[C@@]1(C)[C@@H]3CC[C@H]4C(C)(C)[C@@H](OC(=O)[C@@H]5CCCN5)CCC45C[C@@]35CC[C@]21C)C(C)(C)O (stereo partly drawn)
IC50 [1]: < 1 µM
IC50 [2]: 1 to 10 µM
IC50 [3]: < 1 µM

CCO[C@@H]([C@H]1C[C@@H](C)[C@H]2[C@H](O1)[C@H](O)[C@@]1(C)[C@@H]3CC[C@H]4C(C)(C)C(O[C@H]5CN(CCNC(=O)CCOCCOCCNC(=O)CCCCC6SC[C@@H]7NC(=O)N[C@H]67)CCO5)CC[C@@]45CC35CC[C@]21C)C(C)(C)O (stereo partly drawn)
IC50 [1]: 1 to 10 µM
IC50 [2]: > 10 µM
IC50 [3]: 1 to 10 µM

CCO[C@@H]([C@H]1C[C@@H](C)[C@H]2[C@H](O1)[C@H](O)[C@@]1(C)[C@@H]3CC[C@H]4C(C)(C)[C@@H](O[C@H]5CN(C(C)(C)CO)CCO5)CCC45C[C@@]35CC[C@]21C)C(C)(C)O (stereo partly drawn)
IC50 [1]: < 1 µM
IC50 [2]: 1 to 10 µM
IC50 [3]: < 1 µM

CCO[C@@H]([C@H]1C[C@@H](C)[C@H]2[C@H](O1)[C@H](O)[C@@]1(C)[C@@H]3CC[C@H]4C(C)(C)[C@@H](OC(=O)c5cccnc5)CCC45C[C@@]35CC[C@]21C)C(C)(C)O (stereo partly drawn)
IC50 [1]: < 1 µM
IC50 [2]: > 10 µM
IC50 [3]: < 1 µM

CCO[C@@H]([C@H]1C[C@@H](C)[C@H]2[C@H](O1)[C@H](O)[C@@]1(C)[C@@H]3CC[C@H]4C(C)(C)[C@@H](O[C@H]5CN([C@@H](C)COC)CCO5)CC[C@@]45C[C@@]35CC[C@]21C)C(C)(C)O
IC50 [1]: 1 to 10 µM
IC50 [2]: > 10 µM
IC50 [3]: < 1 µM

CCO[C@@H](C1C[C@@H](C)[C@H]2C(O1)[C@H](O)[C@@]1(C)C3CC[C@H]4C(C)(C)[C@@H](O[C@H]5CN(c6ccccn6)CCO5)CCC45C[C@@]35CC[C@]21C)C(C)(C)O (stereo partly drawn)
IC50 [1]: 1 to 10 µM
IC50 [2]: 1 to 10 µM
IC50 [3]: 1 to 10 µM

CCO[C@@H]([C@H]1C[C@@H](C)[C@H]2[C@H](O1)[C@H](O)[C@@]1(C)[C@@H]3CC[C@H]4C(C)(C)C(O[C@H]5CN(CCNCCCOCCOCCOCCCNC(=O)CCCCC6SC[C@@H]7NC(=O)N[C@H]67)CCO5)CC[C@@]45CC35CC[C@]21C)C(C)(C)O (stereo partly drawn)
IC50 [1]: < 1 µM
IC50 [2]: 1 to 10 µM
IC50 [3]: < 1 µM

CCO[C@@H]([C@H]1C[C@@H](C)[C@H]2[C@H](O1)[C@H](O)[C@@]1(C)[C@@H]3CC[C@H]4C(C)(C)[C@@H](O[C@H]5CN(CC6CN(C(C)=O)C6)CCO5)CCC45C[C@@]35CC[C@]21C)C(C)(C)O (stereo partly drawn)
IC50 [1]: 1 to 10 µM
IC50 [2]: 1 to 10 µM
IC50 [3]: < 1 µM

CCO[C@@H]([C@H]1C[C@@H](C)[C@H]2[C@H](O1)[C@H](O)[C@@]1(C)[C@@H]3CC[C@H]4C(C)(C)[C@@H](O[C@H]5CN(CCO)CCO5)CCC45C[C@@]35CC[C@]21C)C(C)(C)O (stereo partly drawn)
IC50 [1]: < 1 µM
IC50 [2]: 1 to 10 µM
IC50 [3]: < 1 µM

CO[C@@H](C1C[C@@H](C)[C@H]2C(O1)[C@H](O)[C@@]1(C)C3CC[C@H]4C(C)(C)[C@@H](O[C@H]5CNCCO5)CC[C@@]45CC35CC[C@]21C)C(C)(C)O (stereo partly drawn)
IC50 [1]: < 1 µM
IC50 [2]: 1 to 10 µM
IC50 [3]: < 1 µM

CCO[C@@H]([C@H]1C[C@@H](C)[C@H]2[C@H](O1)[C@H](O)[C@@]1(C)[C@@H]3CC[C@H]4C(C)(C)[C@@H](O[C@H]5CN(C(C)(C)CN6CC(F)C6)CCO5)CCC45C[C@@]35CC[C@]21C)C(C)(C)O (stereo partly drawn)
IC50 [1]: < 1 µM
IC50 [2]: 1 to 10 µM
IC50 [3]: < 1 µM

CCO[C@@H]([C@H]1C[C@@H](C)[C@H]2[C@H](O1)[C@H](O)[C@@]1(C)[C@@H]3CC[C@H]4C(C)(C)[C@@H](O[C@H]5CN([C@H](C)CO)CCO5)CC[C@@]45C[C@@]35CC[C@]21C)C(C)(C)O
IC50 [1]: 1 to 10 µM
IC50 [2]: 1 to 10 µM
IC50 [3]: < 1 µM

CCO[C@@H]([C@H]1C[C@@H](C)[C@H]2[C@H](O1)[C@H](O)[C@]1(C)[C@@H]3CC[C@H]4C(C)(C)[C@@H](O[C@H]5CN(C(=O)C6CNC6)CCO5)CC[C@@]45C[C@@]35CC[C@@]21C)C(C)(C)O
IC50 [1]: < 1 µM
IC50 [2]: 1 to 10 µM
IC50 [3]: < 1 µM

CCO[C@@H]([C@H]1C[C@@H](C)[C@H]2[C@H](O1)[C@H](O)[C@@]1(C)[C@@H]3CC[C@H]4C(C)(C)[C@@H](OC(=O)CN5CCOCC5)CCC45C[C@@]35CC[C@]21C)C(C)(C)O (stereo partly drawn)
IC50 [1]: < 1 µM
IC50 [2]: 1 to 10 µM
IC50 [3]: < 1 µM

CO[C@@H](C1C[C@@H](C)[C@H]2C(O1)[C@H](O)[C@@]1(C)C3CC[C@H]4C(C)(C)[C@@H](O[C@H]5CN(C)CCO5)CC[C@@]45CC35CC[C@]21C)C(C)(C)O (stereo partly drawn)
IC50 [1]: 1 to 10 µM
IC50 [2]: 1 to 10 µM
IC50 [3]: 1 to 10 µM

CCO[C@@H]([C@H]1C[C@@H](C)[C@H]2[C@H](O1)[C@H](O)[C@@]1(C)[C@@H]3CC[C@H]4C(C)(C)C(O[C@H]5CN(CCNC(=O)CCC6(C)N=N6)CCO5)CC[C@@]45CC35CC[C@]21C)C(C)(C)O (stereo partly drawn)
IC50 [1]: < 1 µM
IC50 [2]: > 10 µM
IC50 [3]: < 1 µM

CCO[C@@H]([C@H]1C[C@@H](C)[C@H]2[C@H](O1)[C@H](O)[C@@]1(C)[C@@H]3CC[C@H]4C(C)(C)[C@@H](O[C@H]5CN(C(C)(C)CN6CCOCC6)CCO5)CCC45C[C@@]35CC[C@]21C)C(C)(C)O (stereo partly drawn)
IC50 [1]: < 1 µM
IC50 [2]: 1 to 10 µM
IC50 [3]: < 1 µM

CC(=O)O[C@H]([C@H]1C[C@@H](C)[C@H]2[C@@H](O1)[C@@H](O)[C@@]1(C)[C@@H]3CC[C@H]4C(C)(C)[C@@H](O)CCC45C[C@@]35CC[C@]21C)C(C)(C)O (stereo partly drawn)
IC50 [2]: 1 to 10 µM
IC50 [3]: 1 to 10 µM

CCO[C@@H]([C@H]1C[C@@H](C)[C@H]2[C@H](O1)[C@H](O)[C@@]1(C)[C@@H]3CC[C@H]4C(C)(C)C(O[C@H]5CN(CCN(CCCOCCOCCOCCCNC(=O)CCCCC6SC[C@@H]7NC(=O)N[C@H]67)CCNC(=O)CCC6(C)N=N6)CCO5)CC[C@@]45CC35CC[C@]21C)C(C)(C)O (stereo partly drawn)
IC50 [2]: 1 to 10 µM
IC50 [3]: < 1 µM

CCO[C@@H]([C@H]1C[C@@H](C)[C@H]2[C@H](O1)[C@H](O)[C@@]1(C)[C@@H]3CC[C@H]4C(C)(C)[C@@H](OC(=O)[C@H]5COCCN5C(C)C)CCC45C[C@@]35CC[C@]21C)C(C)(C)O (stereo partly drawn)
IC50 [1]: 1 to 10 µM
IC50 [3]: < 1 µM

CCO[C@@H]([C@H]1C[C@@H](C)[C@H]2[C@H](O1)[C@H](O)[C@@]1(C)[C@@H]3CC[C@H]4C(C)(C)[C@@H](OC(=O)[C@@H]5COCCN5CCOC)CCC45C[C@@]35CC[C@]21C)C(C)(C)O (stereo partly drawn)
IC50 [1]: 1 to 10 µM
IC50 [3]: < 1 µM

CCO[C@@H]([C@H]1C[C@@H](C)[C@H]2[C@H](O1)[C@H](O)[C@@]1(C)[C@@H]3CC[C@H]4C(C)(C)[C@@H](O[C@H]5CN([C@H](C)C(=O)N(C)C)CCO5)CCC45C[C@@]35CC[C@]21C)C(C)(C)O (stereo partly drawn)
IC50 [1]: < 1 µM
IC50 [3]: < 1 µM

CCO[C@@H](C1C[C@@H](C)[C@H]2C(O1)[C@H](O)[C@@]1(C)C3CC[C@H]4C(C)(C)[C@@H](O[C@H]5CN(Cc6ncco6)CCO5)CCC45C[C@@]35CC[C@]21C)C(C)(C)O (stereo partly drawn)
IC50 [1]: 1 to 10 µM
IC50 [3]: < 1 µM

From patent US20130060013A1, “Compounds useful for treating neurodegenerative disorders” (SATORI PHARMACEUTICALS, INC., priority 2011, published 2013)
